Source: publication PMC8901636, “Preclinical studies of Flonoltinib Maleate, a novel JAK2/FLT3 inhibitor, in treatment of JAK2^V617F-induced myeloproliferative neoplasms” (Blood Cancer Journal, 2022)
Where two headings read alike, the source gives them in different places.

Assays:
[1] = test system: JAK2/JAK2 signaling; assay: Cytokine-stimulated cell-based assay, GM-CSF-induced p-STAT5; conditions: western blotting
[2] = test system: JAK1/TYK2 pathway; assay: Cytokine-stimulated cell-based assay, IFN-α-induced p-STAT1; conditions: western blotting
[3] = test system: JAK1/JAK2; assay: Cytokine-stimulated cell-based assay, IFN-γ-induced p-STAT1 in U2OS cells; conditions: Homo sapiens
[4] = test system: JAK1/JAK2; assay: Cytokine-stimulated cell-based assay, G-CSF-induced p-STAT3 in HEL cells; conditions: Homo sapiens
Excerpt: To further determine the selectivity of FM to inhibit different JAK isotypes in cell lines, we performed a series of cytokine-stimulated cell-based assays and assessed the signal transduction of JAK subtypes.
(A) Inhibition of cytokine induced JAK auto-phosphorylation by FM in HEL cell lines. Raw data about HEL (B) and Ba/F3-JAK2^V617F (C) cells were supplemented with different concentrations of FM for cell cycle analysis. […] (F) p-FLT3, p-STAT5, and p-ERK in Molm-13 cell line were also assessed after 3 hours exposure with increasing concentrations of FM.

[5] = test system: HEL; assay: MTT assay for cell proliferation; type: cell-based; conditions: Homo sapiens, 72 h, read-out: IC50(μM) ± SD, tumor cell proliferation
Protocol: (§1) For in vitro inhibition assays, cells were seeded in 96-well culture plates with a density of 15,000–20,000 cells/well after the cells reached 70–90% confluence. […] MTT (3-(4, 5-dimethylthiazol-2-yl)-2, 5-diphenyltetrazolium bromide) (Cat. No. 1334GR001; BioFroxx) assay was conducted in order to examine viability. The IC50 values were fitted using GraphPad Prism 7.0.

[6] = test system: Ba/F3-EPOR-JAK2^V617F; assay: MTT assay for cell proliferation; type: cell-based, Murine; conditions: Mus musculus
Protocol: as §1

[7] = test system: Molm-13; assay: MTT assay for cell proliferation; type: cell-based; conditions: Homo sapiens, MOLM-13, 72 h, read-out: IC50(μM) ± SD, tumor cell proliferation
Protocol: as §1

[8] = test system: Ba/F3-FLT3-ITD^F691; assay: MTT assay for cell proliferation; type: cell-based, Murine; conditions: Mus musculus, 72 h, read-out: IC50(μM) ± SD, tumor cell proliferation
Protocol: as §1

[9] = PK and tissue distribution after single oral administration in Ba/F3-EPOR-JAK2^V617F tumor-bearing mice; type: in vivo; conditions: for Kp: spleen and plasma, po
[10] = Bioavailability; conditions: rat, in vivo; rats; data not shown
[11] = Bioavailability; conditions: dog, in vivo; dogs; data not shown
[12] = test system: normal human CD34^+ cells; assay: Normal human CD34+ cells from PB mononuclear cells of healthy donors; type: cell-based; conditions: 48 h
Protocol: To further understand the effect of FM on normal mice and normal human CD34^+ cells, we conducted a further analysis on CD34^+ cells. For normal mice, we measured the proportion of CD34^+ in the peripheral blood of BALB/c mice on Day 0, and then mice were treated with FM 30 mg/kg p.o. twice a day. […] To investigate the effect of FM on normal human CD34^+ cells, we collected mononuclear cells of PB acquired from healthy donors. […] Therefore, in the future phase I clinical trials, we should examine the myelosuppressive effects of FM in patients with MPN.
(A) Normal BALB/c mice were treated with vehicle and FM 30mg/kg p.o. twice a day. FACS analysis of the percentage of CD34^+ cells on Day 0, 7, 14 and 21 (n = 7). (B) Mononuclear cells were isolated from the PB of healthy donors and CD34^+ cells were analyzed after incubated with FM after 48h.

[13] = biological target: FLT3 (Homo sapiens, UniProt P36888); assay: In vitro kinase assay
[14] = biological target: JAK1 (Homo sapiens, UniProt P23458); assay: In vitro kinase assay; conditions: read-out: JAK1 Enzyme IC50
[15] = test system: Ba/F3-JAK2^V617F cells; assay: Ba/F3-JAK2^V617F disease model; conditions: for inhibition of the spleen growth: 22 days, figure prints it with a minus sign over Spleen Weight (mg); for median survival: vehicle 25 days
[16] = BALB/c nude, mouse, brain, oral, 30 mg/kg, single, read-out: FM concentration, Brain
[17] = BALB/c nude, mouse, heart, oral, 30 mg/kg, single, read-out: FM concentration, Heart
[18] = BALB/c nude, mouse, intestine, oral, 30 mg/kg, single, read-out: FM concentration, Intestine
[19] = BALB/c nude, mouse, kidney, oral, 30 mg/kg, single, read-out: FM concentration, Kidney
[20] = BALB/c nude, mouse, liver, oral, 30 mg/kg, single, read-out: FM concentration, Liver
[21] = BALB/c nude, mouse, lung, oral, 30 mg/kg, single, read-out: FM concentration, Lung
[22] = BALB/c nude, mouse, muscle, oral, 30 mg/kg, single, read-out: FM concentration, Muscle
[23] = BALB/c nude, mouse, plasma, oral, 30 mg/kg, single, read-out: FM concentration, Plasma
[24] = BALB/c nude, mouse, spleen, oral, 30 mg/kg, single, read-out: FM concentration, Spleen
[25] = BALB/c nude, mouse, stomach, oral, 30 mg/kg, single, read-out: FM concentration, Stomach
[26] = BALB/c nude, mouse, Plasma, single oral 30 mg/kg
[27] = BALB/c nude, mouse, spleen, single oral 30 mg/kg

JAK1, sequence (P23458 whole entry): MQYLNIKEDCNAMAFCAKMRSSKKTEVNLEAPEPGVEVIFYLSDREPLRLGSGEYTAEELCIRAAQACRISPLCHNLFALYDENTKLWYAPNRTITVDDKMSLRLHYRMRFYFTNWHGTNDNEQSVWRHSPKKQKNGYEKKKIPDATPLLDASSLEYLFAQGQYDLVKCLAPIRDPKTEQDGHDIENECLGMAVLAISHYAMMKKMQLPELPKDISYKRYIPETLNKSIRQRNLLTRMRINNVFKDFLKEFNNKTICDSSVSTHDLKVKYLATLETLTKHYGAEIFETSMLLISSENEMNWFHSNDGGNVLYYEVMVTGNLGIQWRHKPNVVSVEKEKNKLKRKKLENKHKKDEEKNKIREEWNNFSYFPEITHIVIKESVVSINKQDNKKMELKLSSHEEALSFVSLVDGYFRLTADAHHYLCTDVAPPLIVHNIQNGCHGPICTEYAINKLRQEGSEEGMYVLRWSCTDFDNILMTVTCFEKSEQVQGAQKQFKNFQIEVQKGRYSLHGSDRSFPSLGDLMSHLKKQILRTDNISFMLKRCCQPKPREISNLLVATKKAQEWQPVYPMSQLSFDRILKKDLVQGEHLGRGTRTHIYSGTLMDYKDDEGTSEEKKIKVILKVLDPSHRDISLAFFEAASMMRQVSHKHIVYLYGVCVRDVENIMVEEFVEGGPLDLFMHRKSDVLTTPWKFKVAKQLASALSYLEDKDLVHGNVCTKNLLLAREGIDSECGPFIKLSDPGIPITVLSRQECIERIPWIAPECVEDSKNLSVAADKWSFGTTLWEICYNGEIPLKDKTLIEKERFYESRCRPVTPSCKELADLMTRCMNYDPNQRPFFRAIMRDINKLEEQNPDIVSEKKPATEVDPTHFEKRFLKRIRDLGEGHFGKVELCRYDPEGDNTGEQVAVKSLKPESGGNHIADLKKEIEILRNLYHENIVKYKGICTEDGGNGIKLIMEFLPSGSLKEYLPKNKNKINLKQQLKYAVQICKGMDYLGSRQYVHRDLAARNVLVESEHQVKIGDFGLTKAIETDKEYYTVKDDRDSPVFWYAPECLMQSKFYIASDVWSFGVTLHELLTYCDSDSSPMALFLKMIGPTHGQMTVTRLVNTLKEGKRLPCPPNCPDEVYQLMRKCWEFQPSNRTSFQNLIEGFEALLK
FLT3, sequence (P36888 27-993): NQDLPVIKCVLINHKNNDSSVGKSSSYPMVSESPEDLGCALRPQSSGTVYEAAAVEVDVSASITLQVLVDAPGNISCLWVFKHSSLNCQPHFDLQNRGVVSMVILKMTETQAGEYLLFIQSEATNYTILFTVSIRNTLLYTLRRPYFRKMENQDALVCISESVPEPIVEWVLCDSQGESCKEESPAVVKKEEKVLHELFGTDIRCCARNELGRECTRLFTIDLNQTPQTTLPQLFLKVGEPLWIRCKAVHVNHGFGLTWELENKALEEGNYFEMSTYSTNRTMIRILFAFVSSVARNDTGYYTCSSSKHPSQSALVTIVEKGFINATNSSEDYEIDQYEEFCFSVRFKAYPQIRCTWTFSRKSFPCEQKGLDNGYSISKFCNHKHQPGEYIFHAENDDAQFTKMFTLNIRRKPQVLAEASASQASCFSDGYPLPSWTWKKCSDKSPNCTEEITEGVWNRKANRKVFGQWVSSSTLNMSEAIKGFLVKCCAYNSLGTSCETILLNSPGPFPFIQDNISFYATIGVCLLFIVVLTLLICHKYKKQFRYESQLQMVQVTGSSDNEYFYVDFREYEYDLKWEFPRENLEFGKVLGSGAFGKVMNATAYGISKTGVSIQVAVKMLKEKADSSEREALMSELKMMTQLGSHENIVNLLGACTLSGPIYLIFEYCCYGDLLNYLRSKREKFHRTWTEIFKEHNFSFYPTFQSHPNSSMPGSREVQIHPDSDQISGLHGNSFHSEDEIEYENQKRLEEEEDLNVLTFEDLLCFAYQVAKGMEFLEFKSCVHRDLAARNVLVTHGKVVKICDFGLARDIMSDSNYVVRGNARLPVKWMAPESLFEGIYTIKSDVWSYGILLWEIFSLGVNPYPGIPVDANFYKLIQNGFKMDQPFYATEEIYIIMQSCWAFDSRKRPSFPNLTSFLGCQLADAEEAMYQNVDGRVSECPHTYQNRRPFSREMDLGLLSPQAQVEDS

Compound `Cc1cnc(Nc2ccc(N3CCC(N(C)CCO)CC3)c(F)c2)nc1-c1cnn(C(C)C)c1` [FM, 2-((1-(2-fluoro-4-((4-(1-isopropyl-1H-pyrazol-4-yl)-5-methylpyrimidin-2-yl)amino)phenyl)piperidin-4-yl)(methyl)amino)ethan-1-ol] has an IC50 [1] of 120 nM, an IC50 [2] greater than 5000 nM and an IC50 [3] of 390 nM. The IC50 [4] was 460 nM, the IC50 [5] was 0.26 ± 0.2 µM and the IC50 ([6]; 72 h, read-out: IC50(μM) ± SD, tumor cell proliferation) was 0.78 ± 0.21 µM. The IC50 ([6]; as quoted in PK/PD text, read-out: IC50 value of Ba/F3-EPOR-JAK2^V617F cells in vitro) was 0.79 ± 0.01 µM, the IC50 [7] was 0.06 ± 0.03 µM and the IC50 [8] was 0.15 ± 0.02 µM. The “drug concentration in the spleen” value ([9]; 8 h after single oral 30 mg/kg, by calculation) was 2416 ± 1657 nmol/kg, the concentration at 0.5 h [9, 16] was 354 ± 77.1 ng/g and the concentration at 2 h [9, 16] was 309 ± 40.5 ng/g. It also gave a concentration at 4 h [9, 16] of 157 ± 58.3 ng/g, a concentration at 8 h ([9]; BALB/c nude, mouse, brain, oral, 30 mg/kg, single, 8 h, read-out: FM concentration, Brain) of 38.4 ± 28.5 ng/g and a concentration at 0.5 h [9, 17] of 3390 ± 184 ng/g. For the same compound, the concentration at 2 h [9, 17] was 1650 ± 381 ng/g, the concentration at 4 h [9, 17] was 864 ± 418 ng/g and the concentration at 8 h ([9]; BALB/c nude, mouse, heart, oral, 30 mg/kg, single, 8 h, read-out: FM concentration, Heart) was 199 ± 145 ng/g. It also gave a concentration at 0.5 h [9, 18] of 14900 ± 11400 ng/g, a concentration at 2 h [9, 18] of 6250 ± 3230 ng/g and a concentration at 4 h [9, 18] of 8490 ± 2240 ng/g. It also gave a concentration at 8 h ([9]; BALB/c nude, mouse, intestine, oral, 30 mg/kg, single, 8 h, read-out: FM concentration, Intestine) of 4360 ± 4050 ng/g, a concentration at 0.5 h [9, 19] of 12100 ± 1260 ng/g and a concentration at 2 h [9, 19] of 6220 ± 855 ng/g. For the same compound, the concentration at 4 h [9, 19] was 2410 ± 1010 ng/g, the concentration at 8 h ([9]; BALB/c nude, mouse, kidney, oral, 30 mg/kg, single, 8 h, read-out: FM concentration, Kidney) was 1050 ± 767 ng/g and the concentration at 0.5 h [9, 20] was 12800 ± 3700 ng/g. It also gave a concentration at 2 h [9, 20] of 6530 ± 2920 ng/g, a concentration at 4 h [9, 20] of 3820 ± 1480 ng/g and a concentration at 8 h ([9]; BALB/c nude, mouse, liver, oral, 30 mg/kg, single, 8 h, read-out: FM concentration, Liver) of 845 ± 662 ng/g. The concentration at 0.5 h [9, 21] was 11600 ± 2960 ng/g, the concentration at 2 h [9, 21] was 3820 ± 739 ng/g and the concentration at 8 h ([9]; BALB/c nude, mouse, lung, oral, 30 mg/kg, single, 8 h, read-out: FM concentration, Lung) was 603 ± 481 ng/g. The concentration at 0.5 h [9, 22] was 633 ± 619 ng/g, the concentration at 2 h [9, 22] was 217 ± 116 ng/g and the concentration at 4 h [9, 22] was 152 ± 73.9 ng/g. The concentration at 8 h ([9]; BALB/c nude, mouse, muscle, oral, 30 mg/kg, single, 8 h, read-out: FM concentration, Muscle) was 43.1 ± 42 ng/g, the concentration at 0.25 h [9, 23] was 653 ± 108 ng/mL and the concentration at 0.5 h [9, 23] was 857 ± 74.5 ng/mL. The concentration at 1 h [9, 23] was 922 ± 302 ng/mL, the concentration at 2 h [9, 23] was 458 ± 88.2 ng/mL and the concentration at 4 h [9, 23] was 248 ± 80.8 ng/mL. The concentration at 8 h ([9]; BALB/c nude, mouse, plasma, oral, 30 mg/kg, single, 8 h, read-out: FM concentration, Plasma) was 59.9 ± 50 ng/mL, the concentration at 12 h ([9]; BALB/c nude, mouse, plasma, oral, 30 mg/kg, single, 12 h, read-out: FM concentration, Plasma) was 61.4 ± 64.3 ng/mL and the Kp ([9]; BALB/c nude, mouse, 30 mg/kg, AUC(0-24h) of spleen higher than that of plasma, single oral 30 mg/kg) was 15.3. The Kp ([9]; BALB/c nude, mouse, 30 mg/kg, single oral 30 mg/kg, read-out: Cmax of spleen higher than that of plasma) was 11.7, the concentration at 0.25 h [9, 24] was 5630 ± 710 ng/g and the concentration at 0.5 h [9, 24] was 10400 ± 2660 ng/g. The concentration at 1 h [9, 24] was 9930 ± 3970 ng/g, the concentration at 2 h [9, 24] was 8530 ± 1510 ng/g and the concentration at 4 h [9, 24] was 3810 ± 1880 ng/g. For the same compound, the concentration at 8 h ([9]; BALB/c nude, mouse, spleen, oral, 30 mg/kg, single, 8 h, read-out: FM concentration, Spleen) was 1410 ± 968 ng/g, the concentration at 12 h ([9]; BALB/c nude, mouse, spleen, oral, 30 mg/kg, single, 12 h, read-out: FM concentration, Spleen) was 358 ± 228 ng/g and the concentration at 24 h ([9]; BALB/c nude, mouse, spleen, oral, 30 mg/kg, single, 24 h, read-out: FM concentration, Spleen) was 32.6 ± 13.3 ng/g. It also gave a concentration at 8 h ([9]; BALB/c nude, mouse, spleen, 8 h after single oral 30 mg/kg, converted, read-out: drug concentration in the spleen) of roughly 2420 nM, a concentration at 12 h ([9]; BALB/c nude, mouse, spleen, 12 h after single oral 30 mg/kg, converted, read-out: concentration of FM in spleen) of roughly 614 nM and a concentration at 0.5 h [9, 25] of 30300 ± 18400 ng/g. It also gave a concentration at 2 h [9, 25] of 30500 ± 29000 ng/g, a concentration at 4 h [9, 25] of 17700 ± 10900 ng/g and a concentration at 8 h ([9]; BALB/c nude, mouse, stomach, oral, 30 mg/kg, single, 8 h, read-out: FM concentration, Stomach) of 6840 ± 10500 ng/g. It also gave an AUC(0-t) [9, 26] of 2990 ± 558 ng·h/mL, a Cmax [9, 26] of 1030 ± 174 ng/mL and a half-life [9, 26] of 2.31 ± 0.79 h. It also gave a Cmax [9, 27] of 12000 ± 3470 ng/g, a half-life [9, 27] of 2.71 ± 0.51 h and a Cl ([9]; Plasma, single oral 30 mg/kg) of 168.7 ± 36.2 mL/min/kg. For the same compound, the Vdss ([9]; Plasma, single oral 30 mg/kg) was 32.84 ± 10.12 L/kg, the bioavailability [10] was roughly 60% and the bioavailability [11] was roughly 60%. The “effect on normal human CD34^+ cells” value [12] was “general inhibitory effect”, the IC50 [13] was 15 nM and the IC50 [14] was 690 nM. For the same compound, the “inhibition of the spleen growth” value ([15]; 15 mg/kg bid p.o.) was 72.56%, the median survival ([15]; 15 mg/kg bid p.o.) was 30 days and the “inhibition of the spleen growth” value ([15]; 30 mg/kg bid p.o.) was 97.92%. The median survival ([15]; 30 mg/kg bid p.o.) was 31 days and the “body weight during treatment” value ([15]; any dose) was “no obvious body weight decrease”.
